Experimental data reported in patent publication US6011015A, “Angiotensin II for improving fertilization” (Queen Mary & Westfield College, priority 1994, dated 2000).
Structures can show the parent of a compound that is named as a salt.

Legend:
Format in all cases: cell-based
Human sperm [1] = experiment: Percentage motility of human sperm, counted from video recordings in a Makler chamber
Experimental: Human sperm sample were obtained from 12 volunteers and patients attending the Newham Hospital assisted fertility clinic. Samples were suspended in modified minimum essential medium with Earle's salts (MEM) and glutamine and viewed in a Makler chamber using an Olympus inverted microscope fitted with an Olympus ARTF-2 video camera. Fields were recorded on video tape and percentage motility evaluated at 1 min and 5 min. After mixing with MEM alone (unstimulated controls) or with MEM containing 1 nmole/litre angiotensin II amide.
In practice, rigid use of this definition was rarely necessary as sperm were either completely immotile or progressed freely.
A series of six sperm samples, obtained from the same source as Example 1, were mixed either with unmodified MEM, or MEM containing DuP-753 (1 nmole/l).
Percentage motility was estimated in the same way as in Example 1.
(§1) Effect of Angiotensin II on Sperm Velocity Sperm samples were obtained from the same source as Example 1. One series of samples was kept as controls. To a second series Angiotensin II amide (10 nmole/l) was added. A third series was treated with monoclonal antibody to the AT1, receptor before angiotensin was added.
Sperm samples were obtained from the same source as Example 1. One series of samples was kept as controls. A second series was exposed to angiotensin II (1 μmole/l) for five minutes. A third series was exposed to angiotensin II (1 μmole/l) for 5 minutes and then DuP-753 (1 μmole/l) was added.
The percentage of motile sperm was measured using the same method as was used in Example 1.

Human sperm [2] = experiment: Forward progressive sperm velocity, timed manually across the Makler chamber grid; settings: Angiotensin II amide (10 nmole/l); FIG. 3(a)
Experimental: as §1
Velocity was measured by timing forwardly progressive sperm traversing the grid on the Makler Chamber and timing them manually.

Human sperm [3] = experiment: Sperm motility by computer system (VCL and ALH); settings: angiotensin II amide (1 nmole/l) versus unstimulated controls, over 30 minutes
Experimental: Sperm samples were obtained from the same source as Example 1. One series of samples was kept as controls. TO a second series angiotensin II amide (1 nmole/l) was added.
Sperm motility was assayed by using a computer system which measures different aspects of sperm motility, namely curvilinear velocity (VCL) and amplitude of lateral head displacement (ALH).

Molecule: CCCCc1nc(Cl)c(CO)n1Cc1ccc(-c2ccccc2-c2nn[nH]n2)cc1 [DuP-753, 2-n-butyl-4-chloro-5-hydroxymethyl-1-[(2'-(1H-tetrazol-5-yl)biphenyl-4-yl)methyl] imidazole, potassium salt, reference compound]
- percentage motility relative to the untreated controls (Human sperm [1]; MEM containing DuP-753 (1 nmole/l), six sperm samples, FIG. 2): significantly decreased
- effect on the angiotensin II enhancement of the percentage of motile sperm (Human sperm [1]; angiotensin II (1 μmole/l) for 5 minutes, then DuP-753 (1 μmole/l) added, FIG. 4): generally reduced

Molecule: angiotensin II (DRVYIHPF; Angiotensin-2; UniProt P01019 25-32, looked up) [octapeptide hormone of the renin-angiotensin system]
- percentage motility after 5 minutes compared with percentage motility after 1 minute (Human sperm [1]; MEM containing 1 nmole/litre angiotensin II amide, 12 human sperm samples, FIG. 1(b)): significantly different
- percentage of sperm which were motile after 5 minutes compared with the controls (Human sperm [1]; angiotensin II (1 μmole/l) for five minutes, in most samples, FIG. 4): enhanced
- forward progressive velocity compared with the untreated controls (Human sperm [2]): significantly stimulated

Molecule: angiotensin II amide
- curvilinear velocity (VCL) (Human sperm [3]; FIGS. 6 and 8): stimulates
- amplitude of lateral head displacement (ALH) (Human sperm [3]; FIGS. 7 and 8): stimulates
